Blank lines part the entries; values can stand above or below the compound they belong to. Calls of active or inactive are those of the source. No cut-off for these calls is given here.
Tests used:
[1] = biological target: RAC-alpha serine/threonine-protein kinase (Homo sapiens) (UniProt P31749); experiment: Binding affinity to recombinant human AKT (14 to 276 residues) assessed as interaction by measuring decrease in chemiluminescence signal at 0.01 to 5 uM incubated overnight by dot-blot analysis; conditions: dose 0.01-5 µM
HCC1500 [2] = experiment: Anticancer activity against ER-positive human HCC1500 cells assessed as effect on metabolic activity upto 10 uM incubated for 24 hrs by MTT assay; format: functional, cell-based
HCC1428 [3] = experiment: Induction of mitochondrial dysfunction in human HCC1428 cells assessed as decrease in coupling efficiency at 5 uM incubated for 6 hrs by real time analysis; format: functional, cell-based
HCC1428 [4] = experiment: Induction of mitochondrial dysfunction in human HCC1428 cells assessed as increase in proton leak at 5 uM incubated for 6 hrs by real time analysis; format: functional, cell-based
BJ [5] = experiment: Cytotoxicity against human BJ cells assessed as effect on metabolic activity at 1 to 10 uM incubated for 24 hrs by MTT assay; format: toxicity, cell-based; conditions: dose 1-10 µM
HCC1428 [6] = experiment: Induction of mitochondrial dysfunction in human HCC1428 cells assessed as decrease in maximal respiration at 5 uM incubated for 6 hrs by real time analysis; format: functional, cell-based
CAMA-1 [7] = experiment: Anticancer activity against ER-positive human CAMA-1 cells assessed as effect on metabolic activity upto 10 uM incubated for 24 hrs by MTT assay; format: functional, cell-based
HCC1428 [8] = experiment: Anticancer activity against ER-positive human HCC1428 cells assessed as effect on metabolic activity upto 10 uM incubated for 24 hrs by MTT assay; format: functional, cell-based
[9] = Cytotoxicity against human MCF-10F cells assessed as effect on metabolic activity at 1 to 10 uM incubated for 24 hrs by MTT assay; format: toxicity, cell-based; conditions: dose 1-10 µM
HCC1428 [10] = experiment: Induction of mitochondrial dysfunction in human HCC1428 cells assessed as decrease in spare respiratory capacity at 5 uM incubated for 6 hrs by real time analysis; format: functional, cell-based
[11] = biological target: Apoptosis regulator Bcl-2 (Homo sapiens) (UniProt P10415); experiment: Binding affinity to recombinant human Bcl-2 assessed as interaction by measuring decrease in chemiluminescence signal at 0.01 to 5 uM incubated overnight by dot-blot analysis; conditions: dose 0.01-5 µM
HCC1428 [12] = experiment: Induction of mitochondrial dysfunction in human HCC1428 cells assessed as decrease in ATP production at 5 uM incubated for 6 hrs by real time analysis; format: functional, cell-based
ZR-75-30 [13] = experiment: Anticancer activity against ER-positive human ZR-75-30 cells assessed as effect on metabolic activity upto 10 uM incubated for 24 hrs by MTT assay; format: functional, cell-based
Mitochondrial membrane [14] = experiment: Induction of mitochondrial membrane potential depolarization in human ZR-75-30 cells at 1 to 5 uM incubated for 24 hrs by 7-AAD staining based flow cytometric analysis; format: cell membranes; conditions: dose 1-5 µM
ZR-75-30 [15] = experiment: Induction of apoptosis in human ZR-75-30 cells assessed as phosphatidylserine externalization at 1 to 5 uM incubated for 24 hrs by Annexin V-FITC staining based flow cytometric analysis; format: functional, cell-based; conditions: dose 1-5 µM
HCC1428 [16] = experiment: Induction of mitochondrial dysfunction in tamoxifen-induced senescent human HCC1428 cells assessed as decrease in spare respiratory capacity at 5 uM incubated for 6 hrs by real-time analysis; format: functional, cell-based
MCF7 = experiment: Antitumor activity against ER-positive human MCF7 cells xenografted in Danio rerio embryo assessed as decrease in tumor size at 1 to 5 uM administered for 48 hrs by imaging analysis; format: functional, cell-based; conditions: dose 1-5 µM
HCC1428 [17] = experiment: Induction of apoptosis in human HCC1428 cells assessed as phosphatidylserine externalization at 1 to 5 uM incubated for 24 hrs by Annexin V-FITC staining based flow cytometric analysis; format: functional, cell-based; conditions: dose 1-5 µM
Mitochondrial membrane [18] = experiment: Induction of mitochondrial membrane potential depolarization in human HCC1428 cells at 1 to 5 uM incubated for 24 hrs by 7-AAD staining based flow cytometric analysis; format: cell membranes; conditions: dose 1-5 µM
HCC1428 [19] = experiment: Induction of mitochondrial dysfunction in tamoxifen-induced senescent human HCC1428 cells assessed as decrease in coupling efficiency respiration at 5 uM incubated for 6 hrs by real-time analysis; format: functional, cell-based
HCC1428 [20] = experiment: Induction of mitochondrial dysfunction in tamoxifen-induced senescent human HCC1428 cells assessed as increase in proton leak at 5 uM incubated for 6 hrs by real-time analysis; format: functional, cell-based
HCC1428 [21] = experiment: Induction of ubiquitin-independent mitophagy in tamoxifen-induced senescent human HCC1428 cells assessed as increase in BNIP3 level at 1 to 5 uM by immunostaining based imaging cytometric analysis; format: functional, cell-based; conditions: dose 1-5 µM
Mitochondrial membrane [22] = experiment: Induction of mitochondrial membrane potential depolarization in human HCC1500 cells at 1 to 5 uM incubated for 24 hrs by 7-AAD staining based flow cytometric analysis; format: cell membranes; conditions: dose 1-5 µM
MCF-10F [23] = experiment: Induction of mitochondrial dysfunction in tamoxifen-induced senescent human MCF-10F cells assessed as decrease in maximal respiration at 5 uM incubated for 6 hrs by real-time analysis; format: functional, cell-based
MCF-10F [24] = experiment: Induction of mitochondrial dysfunction in tamoxifen-induced senescent human MCF-10F cells assessed as increase in proton leak at 5 uM incubated for 6 hrs by real-time analysis; format: functional, cell-based
HCC1428 [25] = experiment: Induction of mitochondrial dysfunction in tamoxifen-induced senescent human HCC1428 cells assessed as decrease in maximal respiration at 5 uM incubated for 6 hrs by real-time analysis; format: functional, cell-based
HCC1428 [26] = experiment: Induction of autophagy in tamoxifen-induced senescent human HCC1428 cells assessed as increase in ULK1 level at 1 to 5 uM by immunostaining based imaging cytometric analysis; format: functional, cell-based; conditions: dose 1-5 µM
HCC1428 [27] = experiment: Induction of autophagosome formation in tamoxifen-induced senescent human HCC1428 cells assessed as increase in LC3B level at 1 to 5 uM by immunostaining based imaging cytometric analysis; format: functional, cell-based; conditions: dose 1-5 µM
HCC1428 [28] = experiment: Induction of autophagy in tamoxifen-induced senescent human HCC1428 cells assessed as increase in VPS34 level at 1 to 5 uM by immunostaining based imaging cytometric analysis; format: functional, cell-based; conditions: dose 1-5 µM
HCC1428 [29] = experiment: Induction of alternative mitophagy in tamoxifen-induced senescent human HCC1428 cells assessed as increase in Rab9 level at 1 to 5 uM by immunostaining based imaging cytometric analysis; format: functional, cell-based; conditions: dose 1-5 µM
MCF-10F [30] = experiment: Induction of mitochondrial dysfunction in tamoxifen-induced senescent human MCF-10F cells assessed as decrease in spare respiratory capacity at 5 uM incubated for 6 hrs by real-time analysis; format: functional, cell-based
HCC1428 [31] = experiment: Induction of autophagosome formation in tamoxifen-induced senescent human HCC1428 cells assessed as increase in ubiquitin level at 1 to 5 uM by immunostaining based imaging cytometric analysis; format: functional, cell-based; conditions: dose 1-5 µM
ZR-75-30 [32] = experiment: Induction of apoptosis in tamoxifen-induced senescent human ZR-75-30 cells assessed as phosphatidylserine externalization at 1 to 5 uM incubated for 24 hrs by Annexin V-FITC staining based flow cytometric analysis; format: functional, cell-based; conditions: dose 1-5 µM
HCC1428 [33] = experiment: Induction of ubiquitin-dependent mitophagy in tamoxifen-induced senescent human HCC1428 cells assessed as increase in parkin level at 1 to 5 uM by immunostaining based imaging cytometric analysis; format: functional, cell-based; conditions: dose 1-5 µM
CAMA-1 [34] = experiment: Induction of apoptosis in tamoxifen-induced senescent human CAMA-1 cells assessed as phosphatidylserine externalization at 1 to 5 uM incubated for 24 hrs by Annexin V-FITC staining based flow cytometric analysis; format: functional, cell-based; conditions: dose 1-5 µM
HCC1428 [35] = experiment: Induction of mitochondrial dysfunction in tamoxifen-induced senescent human HCC1428 cells assessed as decrease in ATP production at 5 uM incubated for 6 hrs by real-time analysis; format: functional, cell-based
Mitochondrial membrane [36] = experiment: Induction of mitochondrial membrane potential depolarization in human CAMA-1 cells at 1 to 5 uM incubated for 24 hrs by 7-AAD staining based flow cytometric analysis; format: cell membranes; conditions: dose 1-5 µM
HCC1428 [37] = experiment: Anticancer activity against ER-positive human HCC1428 cells assessed as effect on metabolic activity at 10 uM incubated for 24 hrs by MTT assay; format: functional, cell-based
HCC1428 [38] = experiment: Induction of apoptosis in tamoxifen-induced senescent human HCC1428 cells assessed as phosphatidylserine externalization at 1 to 5 uM incubated for 24 hrs by Annexin V-FITC staining based flow cytometric analysis; format: functional, cell-based; conditions: dose 1-5 µM
CAMA-1 [39] = experiment: Induction of apoptosis in human CAMA-1 cells assessed as phosphatidylserine externalization at 1 to 5 uM incubated for 24 hrs by Annexin V-FITC staining based flow cytometric analysis; format: functional, cell-based; conditions: dose 1-5 µM
HCC1500 [40] = experiment: Induction of apoptosis in tamoxifen-induced senescent human HCC1500 cells assessed as phosphatidylserine externalization at 1 to 5 uM incubated for 24 hrs by Annexin V-FITC staining based flow cytometric analysis; format: functional, cell-based; conditions: dose 1-5 µM
HCC1428 [41] = experiment: Induction of apoptosis in tamoxifen-induced senescent human HCC1428 cells assessed as decrease in AKT level at 5 uM incubated for 24 hrs by Western blotting analysis; format: functional, cell-based
HCC1428 [42] = experiment: Upregulation of BECN1 level in tamoxifen-induced senescent human HCC1428 cells at 1 to 5 uM by immunostaining based imaging cytometric analysis; format: functional, cell-based; conditions: dose 1-5 µM
HCC1428 [43] = experiment: Induction of ubiquitin-dependent mitophagy in tamoxifen-induced senescent human HCC1428 cells assessed as increase in PINK1 level at 1 to 5 uM by immunostaining based imaging cytometric analysis; format: functional, cell-based; conditions: dose 1-5 µM
MCF-10F [44] = experiment: Induction of mitochondrial dysfunction in tamoxifen-induced senescent human MCF-10F cells assessed as decrease in ATP production at 5 uM incubated for 6 hrs by real-time analysis; format: functional, cell-based
HCC1500 [45] = experiment: Induction of apoptosis in human HCC1500 cells assessed as phosphatidylserine externalization at 1 to 5 uM incubated for 24 hrs by Annexin V-FITC staining based flow cytometric analysis; format: functional, cell-based; conditions: dose 1-5 µM
BJ [46] = experiment: Cytotoxicity against human BJ cells assessed as effect on metabolic activity at 10 uM incubated for 24 hrs by MTT assay; format: toxicity, cell-based
T47D = experiment: Antitumor activity against ER-positive human T47D cells xenografted in Danio rerio embryo assessed as decrease in tumor size at 1 to 5 uM administered for 48 hrs by imaging analysis; format: functional, cell-based; conditions: dose 1-5 µM
MCF-10F [47] = experiment: Induction of mitochondrial dysfunction in tamoxifen-induced senescent human MCF-10F cells assessed as decrease in coupling efficiency at 5 uM incubated for 6 hrs by real-time analysis; format: functional, cell-based

Chain of RAC-alpha serine/threonine-protein kinase (Homo sapiens) (P31749 whole entry, the tested form may be a part): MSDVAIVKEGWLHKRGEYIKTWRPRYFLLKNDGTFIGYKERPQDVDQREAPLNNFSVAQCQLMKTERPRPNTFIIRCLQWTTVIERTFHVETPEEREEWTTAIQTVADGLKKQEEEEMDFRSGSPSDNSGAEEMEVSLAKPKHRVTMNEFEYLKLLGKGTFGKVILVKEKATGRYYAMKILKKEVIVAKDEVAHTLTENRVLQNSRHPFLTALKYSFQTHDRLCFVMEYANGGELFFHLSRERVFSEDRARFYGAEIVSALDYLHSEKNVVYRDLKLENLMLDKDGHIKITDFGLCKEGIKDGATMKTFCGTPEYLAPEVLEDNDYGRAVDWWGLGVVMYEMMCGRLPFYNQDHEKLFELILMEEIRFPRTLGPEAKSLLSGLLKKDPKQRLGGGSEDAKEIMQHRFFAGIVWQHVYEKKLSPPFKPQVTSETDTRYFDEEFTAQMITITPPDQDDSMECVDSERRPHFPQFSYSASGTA
Chain of Apoptosis regulator Bcl-2 (Homo sapiens) (P10415 whole entry): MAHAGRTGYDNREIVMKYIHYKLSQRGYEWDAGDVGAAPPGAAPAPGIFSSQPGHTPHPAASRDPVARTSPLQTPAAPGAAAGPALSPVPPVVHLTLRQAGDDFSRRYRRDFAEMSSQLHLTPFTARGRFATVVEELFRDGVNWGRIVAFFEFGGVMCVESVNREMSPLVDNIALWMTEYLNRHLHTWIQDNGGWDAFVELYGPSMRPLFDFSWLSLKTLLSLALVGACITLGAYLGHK

Activity [1]: Active
Activity [11]: Active
SMILES: CC(=O)Oc1c(-c2ccc3c(c2)OC(c2ccccc2)(c2ccccc2)O3)oc2cc(OCCCC[P+](c3ccccc3)(c3ccccc3)c3ccccc3)ccc2c1=O.[I-]
Activity (HCC1500 [2]): Active
Activity (HCC1428 [3]): Active
Activity (HCC1428 [4]): Active
Activity (BJ [5]): Non-toxic
Activity (HCC1428 [6]): Active
Activity (CAMA-1 [7]): Active
Activity (HCC1428 [8]): Active
Activity [9]: Non-toxic
Activity (HCC1428 [10]): Active
Activity (HCC1428 [12]): Active
Activity (ZR-75-30 [13]): Active

Activity (Mitochondrial membrane [14]): inactive
Activity [1]: Active
Activity (Mitochondrial membrane [18]): inactive
Activity (Mitochondrial membrane [22]): inactive
Activity (Mitochondrial membrane [36]): inactive
Activity [11]: Active
SMILES: O=c1c(O)c(-c2ccc(O)c(O)c2)oc2cc(O)ccc12 [FISETIN]
Activity (ZR-75-30 [15]): inactive
Activity (HCC1428 [16]): inactive
Activity (MCF7): inactive
Activity (HCC1428 [17]): inactive
Activity (HCC1428 [19]): inactive
Activity (HCC1428 [20]): inactive
Activity (HCC1428 [21]): inactive
Activity (MCF-10F [23]): inactive
Activity (MCF-10F [24]): inactive
Activity (HCC1428 [25]): inactive
Activity (HCC1428 [26]): inactive
Activity (HCC1428 [27]): inactive
Activity (HCC1428 [28]): inactive
Activity (HCC1428 [29]): inactive
Activity (MCF-10F [30]): inactive
Activity (HCC1428 [31]): inactive
Activity (ZR-75-30 [32]): inactive
Activity (HCC1428 [33]): inactive
Activity (CAMA-1 [34]): inactive
Activity (HCC1428 [35]): inactive
Activity (HCC1428 [37]): Active
Activity (HCC1428 [38]): inactive
Activity (CAMA-1 [39]): inactive
Activity (HCC1500 [40]): inactive
Activity (HCC1428 [41]): Active
Activity (HCC1428 [42]): inactive
Activity (HCC1428 [43]): inactive
Activity (MCF-10F [44]): inactive
Activity (HCC1500 [45]): inactive
Activity (BJ [46]): Toxic
Activity (T47D): inactive
Activity (MCF-10F [47]): inactive

Activity [1]: Active
Activity [11]: Active
SMILES: O=c1c(O)c(-c2ccc3c(c2)OC(c2ccccc2)(c2ccccc2)O3)oc2cc(O)ccc12
Activity (MCF7): inactive
Activity (HCC1428 [3]): Active; Slight Effect Observed
Activity (HCC1428 [4]): Active; Slight Effect Observed
Activity (HCC1428 [6]): Active; Slight Effect Observed
Activity (HCC1428 [10]): Active; Slight Effect Observed
Activity (T47D): inactive
Activity (HCC1428 [12]): Active; Slight Effect Observed

Source: ChEMBL document CHEMBL6120962, “New Mitochondria-Targeted Fisetin Derivative Compromises Mitophagy and Limits Survival of Drug-Induced Senescent Breast Cancer Cells” (J Med Chem, 2024)
